What follows are compounds tested on Human immunodeficiency virus 1 (assay: Antiviral activity against Human immunodeficiency virus 1 assessed as inhibition of viral replication by MTT assay).
Assay type: functional, organism-based

Which EC50 does the source give for Cc1cn([C@H]2C[C@H](N=[N+]=[N-])[C@@H](CO)O2)c(=O)[nH]c1=O [ZIDOVUDINE] here?
Its EC50 is 0.084 µM.

With [N-]=[N+]=N[C@]1(CO)O[C@@H](n2ccc3c(N)ncnc32)[C@@H](F)[C@@H]1O as the compound, how does the EC50 read?
The EC50 was 0.5 µM.

With [N-]=[N+]=N[C@]1(CO)O[C@@H](n2cc(F)c3c(N)ncnc32)[C@@H](F)[C@@H]1O as the compound, how does the EC50 read?
The EC50 was 5.4 µM.

[N-]=[N+]=N[C@]1(CO)O[C@@H](n2ccc3c(O)ncnc32)[C@@H](F)[C@@H]1O was tested. Which EC50 did it give?
The EC50 was 13 µM.

Source: ChEMBL document CHEMBL1909599, “Synthesis and anti-HIV-1 activity of 4-substituted-7-(2'-deoxy-2'-fluoro-4'-azido-β-D-ribofuranosyl)pyrrolo[2,3-d]pyrimidine analogues” (Bioorg Med Chem Lett, 2011)
